This is an account of results in patent US20140107151A1, “TYROSINE KINASE INHIBITORS” (Principal Biopharma Inc., priority 2011, published 2014).

pIC50: −log10 of the molar value.

This experiment has as its target human recombinant Btk (Homo sapiens, UniProt Q06187). Briefly: Btk Enzymatic Activity Assay (Caliper-based kinase assay). The settings on record: human recombinant Btk 2 nM, ATP 40 μM, peptide substrate 1 μM, room temperature for 3 h. Type of experiment: biochemical.

Sequence of human recombinant Btk (Q06187 whole entry): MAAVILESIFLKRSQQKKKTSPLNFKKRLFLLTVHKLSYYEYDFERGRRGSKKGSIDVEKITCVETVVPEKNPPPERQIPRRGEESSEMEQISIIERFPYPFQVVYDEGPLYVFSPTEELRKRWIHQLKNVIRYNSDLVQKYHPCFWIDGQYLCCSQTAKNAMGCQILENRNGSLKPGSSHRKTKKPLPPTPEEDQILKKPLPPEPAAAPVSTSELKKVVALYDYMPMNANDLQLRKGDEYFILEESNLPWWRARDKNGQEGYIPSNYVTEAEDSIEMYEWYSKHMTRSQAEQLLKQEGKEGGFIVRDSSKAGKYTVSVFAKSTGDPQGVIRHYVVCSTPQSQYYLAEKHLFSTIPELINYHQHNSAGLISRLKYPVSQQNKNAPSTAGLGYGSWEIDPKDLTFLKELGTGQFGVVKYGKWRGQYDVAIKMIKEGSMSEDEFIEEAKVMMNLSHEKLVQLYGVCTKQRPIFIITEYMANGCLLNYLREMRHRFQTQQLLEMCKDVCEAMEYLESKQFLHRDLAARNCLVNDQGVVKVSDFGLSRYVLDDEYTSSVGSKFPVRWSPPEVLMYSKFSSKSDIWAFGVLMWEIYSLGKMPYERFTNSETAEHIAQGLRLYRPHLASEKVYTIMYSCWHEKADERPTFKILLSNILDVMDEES
Protocol: A Caliper-based kinase assay (Caliper Life Sciences, Hopkinton, Mass.) was used to measure inhibition of Btk kinase activity of a compound of Formula (I). […] The reaction was then terminated with EDTA, final concentration 20 mM and the phosphorylated reaction product was quantified on a Caliper Desktop Profiler (Caliper LabChip 3000).

A word on the pIC50: it is the negative decadic logarithm of the IC50, by convention in mol/L. Turning to `CC(C)C=C(C#N)C(=O)N1CCC[C@H](c2cc3[nH]nc(N)c3c(-c3ccc(Oc4ccccc4)cc3)n2)C1` [Example 11A, (S)-2-(3-(3-amino-4-(4-phenoxyphenyl)-1H-pyrazolo[4,3-c]pyridin-6-yl)piperidine-1-carbonyl)-4-methylpent-2-enenitrile], the pIC50 was 7.81.

Consider `CC(C)C=C(C#N)C(=O)N1CCC[C@@H](c2cc3[nH]nc(N)c3c(-c3ccc(Oc4ccccc4)cc3)n2)C1` [Example 11, (R)-2-(3-(3-amino-4-(4-phenoxyphenyl)-1H-pyrazolo[4,3-c]pyridin-6-yl)piperidine-1-carbonyl)-4-methylpent-2-enenitrile], for which the pIC50 was 8.03. To `N#CC(=CC1CC1)C(=O)N1CCCC1Cc1cc2[nH]nc(N)c2c(-c2ccc(Oc3ccccc3)cc2)n1` (centres unmarked) [Example 10, 2-(2-((3-amino-4-(4-phenoxyphenyl)-1H-pyrazolo[4,3-c]pyridin-6-yl)-methyl)pyrrolidine-1-carbonyl)-3-cyclopropylacrylonitrile] belongs 8.70. `CC(C)C=C(C#N)C(=O)N1CCC[C@H]1c1cc2[nH]nc(N)c2c(-c2ccc(Oc3ccccc3)cc2)n1` [Example 11B, (S)-2-(2-(3-amino-4-(4-phenoxyphenyl)-1H-pyrazolo[4,3-c]pyridin-6-yl)pyrrolidine-1-carbonyl)-4-methylpent-2-enenitrile]: the pIC50 was 7.89. To `N#CC(=CC1CC1)C(=O)N1CCCC(c2cc3[nH]nc(N)c3c(-c3ccc(Oc4ccccc4)cc3)n2)C1` (centres unmarked) [Example 9, 2-(3-(3-amino-4-(4-phenoxyphenyl)-1H-pyrazolo[4,3-c]pyridin-6-yl)piperidine-1-carbonyl)-3-cyclopropylacrylonitrile] belongs 8.96.

Consider `N#CC(=CC1CC1)C(=O)N1CCC(c2cc3[nH]nc(N)c3c(-c3ccc(Oc4ccccc4)cc3)n2)CC1` [Example 8, 2-(4-(3-amino-4-(4-phenoxyphenyl)-1H-pyrazolo[4,3-c]pyridin-6-yl)piperidine-1-carbonyl)-3-cyclopropylacrylonitrile], for which the pIC50 was 8.70.

As for `CC(C)C=C(C#N)C(=O)N1CCC(Cc2cc3[nH]nc(N)c3c(-c3ccc(Oc4ccccc4)cc3)n2)C1` (centres unmarked) [Example 10A, 2-(3-((3-amino-4-(4-phenoxyphenyl)-1H-pyrazolo[4,3-c]pyridin-6-yl)methyl)-pyrrolidine-1-carbonyl)-4-methylpent-2-enenitrile], the pIC50 was 8.92.

Regarding `CC(C)C=C(C#N)C(=O)N1CCC[C@@H]1c1cc2[nH]nc(N)c2c(-c2ccc(Oc3ccccc3)cc2)n1` [Example 11C, (R)-2-(2-(3-amino-4-(4-phenoxyphenyl)-1H-pyrazolo[4,3-c]pyridin-6-yl)pyrrolidine-1-carbonyl)-4-methylpent-2-enenitrile], the pIC50 is 7.87.
